Assay results published in ChEMBL document CHEMBL4627310, “Design, synthesis and biological evaluation of 3-nitro-1,8-naphthalimides as potential antitumor agents” (Bioorg Med Chem Lett, 2020).
Calls of active or inactive are those of the source. The calls are words filed in the database; no cut-off is given here.

Assays:
T-24 [1] = test: Induction of apoptosis in human T24 cells assessed as early apoptotic cells at 8.26 uM by AnnexinV/propidium iodide staining based flow cytometry (reference value: 0.7%); assay type: functional
T-24 [2] = test: Induction of cell cycle arrest in human T24 cells assessed as upregulation of Wee1 expression at 2 to 8 uM by Western blot analysis; assay type: functional, cell-based
T-24 [3] = test: Induction of apoptosis in human T24 cells assessed as upregulation of cytosolic cytochrome-C expression at 2 to 8 uM by Western blot analysis; assay type: functional, cell-based
T-24 [4] = test: Cell cycle arrest in human T24 cells assessed as accumulation at S phase at 2.06 uM measured after 24 hrs by propidium iodide staining based fluorescence analysis (reference value: 23.67%); assay type: functional
[5] = Toxicity in mouse xenografted with human T24 cells assessed as adverse effect at 5 to 15 mg/kg; assay type: organism-based, T-24; conditions: in vivo
T-24 [6] = test: Induction of apoptosis in human T24 cells assessed as membrane blebbing by AO/EB staining based assay; assay type: functional, cell-based
T-24 [7] = test: Induction of apoptosis in human T24 cells assessed as live cells at 8.26 uM by AnnexinV/propidium iodide staining based flow cytometry (reference value: 99.1%); assay type: functional
[8] = Toxicity in mouse xenografted with human HepG2 cells assessed as adverse effect at 5 to 15 mg/kg; assay type: organism-based; conditions: in vivo
T-24 [9] = test: Anticancer activity against human T24 cells xenografted in mouse assessed as tumor growth inhibition by measuring T/C ratio at 5 mg/kg measured at day 14 relative to control; assay type: functional
T-24 [10] = test: Antiproliferative activity against human T24 cells assessed as cell growth inhibition measured after 48 hrs by MTT assay; assay type: functional, cell-based; conditions: T-24, 48 h
T-24 [11] = test: Cell cycle arrest in human T24 cells assessed as accumulation at S phase at 4.13 uM measured after 24 hrs by propidium iodide staining based fluorescence analysis (reference value: 23.67%); assay type: functional
T-24 [12] = test: Anticancer activity against human T24 cells xenografted in mouse assessed as tumor inhibition rate at 15 mg/kg measured at day 14 relative to control; assay type: functional; conditions: T-24, 336 h
T-24 [13] = test: Induction of morphological changes in human T24 cells by AO/EB staining based assay; assay type: functional, cell-based
T-24 [14] = test: Induction of cell cycle arrest in human T24 cells assessed as upregulation of p21 expression at 2 to 8 uM by Western blot analysis; assay type: functional, cell-based
T-24 [15] = test: Cell cycle arrest in human T24 cells assessed as accumulation at G1 phase at 4.13 uM measured after 24 hrs by propidium iodide staining based fluorescence analysis (reference value: 66.18%); assay type: functional
T-24 [16] = test: Induction of apoptosis in human T24 cells assessed as […] of Bax expression at 2 to 8 uM by Western blot analysis; assay type: functional, cell-based
HepG2 [17] = test: Anticancer activity against human HepG2 cells xenografted in mouse assessed as tumor growth inhibition by measuring T/C ratio at 15 mg/kg measured at day 14 relative to control; assay type: functional
HepG2 [18] = test: Anticancer activity against human HepG2 cells xenografted in mouse assessed as tumor growth inhibition by measuring T/C ratio at 5 mg/kg measured at day 14 relative to control; assay type: functional
HepG2 [19] = test: Anticancer activity against human HepG2 cells xenografted in mouse assessed as tumor inhibition rate at 5 mg/kg measured at day 14 relative to control; assay type: functional; conditions: HepG2, 336 h
DNA = test: Induction of DNA damage in human T24 cells assessed as inhibition of DNA replication at 10 uM measured after 24 hrs by EdU incorporation assay; assay type: cell-based; conditions: T-24
T-24 [20] = test: Induction of apoptosis in human T24 cells assessed as late apoptotic cells at 8.26 uM by AnnexinV/propidium iodide staining based flow cytometry (reference value: 0%); assay type: functional
T-24 [21] = test: Anticancer activity against human T24 cells xenografted in mouse assessed as tumor growth inhibition by measuring T/C ratio at 15 mg/kg measured at day 14 relative to control; assay type: functional
T-24 [22] = test: Induction of apoptosis in human T24 cells assessed as live cells at 4.13 uM by AnnexinV/propidium iodide staining based flow cytometry (reference value: 99.1%); assay type: functional
[23] = Toxicity in mouse xenografted with human T24 cells assessed as effect on body weight at 5 to 15 mg/kg; assay type: organism-based, T-24; conditions: in vivo
T-24 [24] = test: Induction of apoptosis in human T24 cells assessed as early apoptotic cells at 2.06 uM by AnnexinV/propidium iodide staining based flow cytometry (reference value: 0.7%); assay type: functional
[25] = target: T1, DNA topoisomerase 1 (Homo sapiens) (UniProt P11387); test: Inhibition of topoisomerase 1 (unknown origin) mediated DNA relaxation at 20 uM by gel electrophoresis assay
T1 sequence (whole entry): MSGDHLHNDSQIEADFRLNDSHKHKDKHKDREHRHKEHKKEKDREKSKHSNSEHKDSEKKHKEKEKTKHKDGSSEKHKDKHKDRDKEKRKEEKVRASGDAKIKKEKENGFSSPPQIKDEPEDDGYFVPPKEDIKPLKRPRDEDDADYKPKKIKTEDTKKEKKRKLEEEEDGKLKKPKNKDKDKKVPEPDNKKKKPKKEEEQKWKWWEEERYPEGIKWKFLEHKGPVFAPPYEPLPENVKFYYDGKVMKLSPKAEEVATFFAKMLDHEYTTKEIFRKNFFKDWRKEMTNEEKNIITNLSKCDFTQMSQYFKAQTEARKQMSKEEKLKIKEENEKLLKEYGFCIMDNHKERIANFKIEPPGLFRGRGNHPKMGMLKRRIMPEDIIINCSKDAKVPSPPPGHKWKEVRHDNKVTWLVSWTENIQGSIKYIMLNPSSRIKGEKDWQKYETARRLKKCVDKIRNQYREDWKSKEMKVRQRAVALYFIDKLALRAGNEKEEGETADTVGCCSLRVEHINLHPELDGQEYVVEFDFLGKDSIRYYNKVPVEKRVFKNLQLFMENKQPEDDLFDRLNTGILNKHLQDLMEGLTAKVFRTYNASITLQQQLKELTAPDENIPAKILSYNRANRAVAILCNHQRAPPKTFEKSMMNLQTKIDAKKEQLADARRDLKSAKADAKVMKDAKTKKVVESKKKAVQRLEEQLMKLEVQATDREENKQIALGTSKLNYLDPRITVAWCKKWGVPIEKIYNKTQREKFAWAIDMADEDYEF

T-24 [26] = test: Induction of apoptosis in human T24 cells assessed as early apoptotic cells at 4.13 uM by AnnexinV/propidium iodide staining based flow cytometry (reference value: 0.7%); assay type: functional
T-24 [27] = test: Induction of apoptosis in human T24 cells assessed as cell budding by AO/EB staining based assay; assay type: functional
T-24 [28] = test: Cell cycle arrest in human T24 cells assessed as accumulation at G2/M phase at 8.26 uM measured after 24 hrs by propidium iodide staining based fluorescence analysis (reference value: 10.16%); assay type: functional
T-24 [29] = test: Induction of cell cycle arrest in human T24 cells assessed as upregulation of cdc-2Ty expression at 2 to 8 uM by Western blot analysis; assay type: functional, cell-based
T-24 [30] = test: Cell cycle arrest in human T24 cells assessed as accumulation at G1 phase at 2.06 uM measured after 24 hrs by propidium iodide staining based fluorescence analysis (reference value: 66.18%); assay type: functional
[31] = Toxicity in mouse xenografted with human HepG2 cells assessed as effect on body weight at 5 to 15 mg/kg; assay type: organism-based; conditions: in vivo

With `CNCCN1C(=O)c2cccc3cc([N+](=O)[O-])cc(c23)C1=O` the Activity (T-24 [1]) was 23.4%, the Activity (T-24 [2]) was “Active” and the Activity (T-24 [3]) was “Active”. For the same compound, the Activity (T-24 [4]) was 19.81%, the Activity [5] was “Non-Toxic” and the Activity (T-24 [6]) was “Active”. For the same compound, the Activity (T-24 [7]) was 76.6%, the Activity [8] was “Non-Toxic” and the T/C (T-24 [9]) was 62.9%. It also gave an IC50 (T-24 [10]) of 4.13 µM, an Activity (T-24 [11]) of 7.99% and an inhibition in vivo at 15 mg/kg (T-24 [12]) of 58.7%. The Activity (T-24 [13]) was “Active”, the Activity (T-24 [14]) was “Active” and the Activity (T-24 [15]) was 9.9%. The Activity (T-24 [16]) was “Active”, the T/C (HepG2 [17]) was 38.6% and the T/C (HepG2 [18]) was 66.7%. For the same compound, the inhibition in vivo at 5 mg/kg (HepG2 [19]) was 26.8%, the Activity (DNA) was “Active” and the Activity (T-24 [20]) was 0%. The T/C (T-24 [21]) was 38.4%, the Activity (T-24 [22]) was 94.3% and the Activity [23] was “Non-Toxic”. For the same compound, the Activity (T-24 [24]) was 0.9%, the inhibition [25] was “Active” and the Activity (T-24 [26]) was 5.4%. For the same compound, the Activity (T-24 [27]) was “Active”, the Activity (T-24 [28]) was 92.24% and the Activity (T-24 [29]) was “Active”. The Activity (T-24 [30]) was 50.17% and the Activity [31] was “Non-Toxic”.
